# Biological target: Cholinesterases; ACHE & BCHE (Homo sapiens) (UniProt P06276+P22303)
# Assay: Selectivity ratio of Ki for human recombinant AChE to Ki for human recombinant BChE
# Sequence of Cholinesterases; ACHE & BCHE (Homo sapiens) (P06276 whole entry, looked up): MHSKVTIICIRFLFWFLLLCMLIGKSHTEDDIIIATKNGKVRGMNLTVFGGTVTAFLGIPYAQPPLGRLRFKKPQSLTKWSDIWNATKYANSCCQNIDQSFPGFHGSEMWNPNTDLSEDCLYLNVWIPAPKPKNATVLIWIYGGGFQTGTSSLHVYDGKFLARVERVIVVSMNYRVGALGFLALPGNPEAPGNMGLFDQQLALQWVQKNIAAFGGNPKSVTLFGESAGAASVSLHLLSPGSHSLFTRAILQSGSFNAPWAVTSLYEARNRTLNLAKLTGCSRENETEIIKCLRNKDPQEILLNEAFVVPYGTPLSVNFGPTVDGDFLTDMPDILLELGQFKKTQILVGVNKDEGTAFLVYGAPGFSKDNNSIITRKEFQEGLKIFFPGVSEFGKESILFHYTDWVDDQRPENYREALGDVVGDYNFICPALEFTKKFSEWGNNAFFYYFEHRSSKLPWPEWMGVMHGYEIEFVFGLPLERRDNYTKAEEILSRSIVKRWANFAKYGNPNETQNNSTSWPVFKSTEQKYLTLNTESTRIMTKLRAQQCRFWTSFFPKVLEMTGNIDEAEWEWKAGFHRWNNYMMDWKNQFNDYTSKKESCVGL
# Sequence of Cholinesterases; ACHE & BCHE (Homo sapiens) (P22303 whole entry, looked up): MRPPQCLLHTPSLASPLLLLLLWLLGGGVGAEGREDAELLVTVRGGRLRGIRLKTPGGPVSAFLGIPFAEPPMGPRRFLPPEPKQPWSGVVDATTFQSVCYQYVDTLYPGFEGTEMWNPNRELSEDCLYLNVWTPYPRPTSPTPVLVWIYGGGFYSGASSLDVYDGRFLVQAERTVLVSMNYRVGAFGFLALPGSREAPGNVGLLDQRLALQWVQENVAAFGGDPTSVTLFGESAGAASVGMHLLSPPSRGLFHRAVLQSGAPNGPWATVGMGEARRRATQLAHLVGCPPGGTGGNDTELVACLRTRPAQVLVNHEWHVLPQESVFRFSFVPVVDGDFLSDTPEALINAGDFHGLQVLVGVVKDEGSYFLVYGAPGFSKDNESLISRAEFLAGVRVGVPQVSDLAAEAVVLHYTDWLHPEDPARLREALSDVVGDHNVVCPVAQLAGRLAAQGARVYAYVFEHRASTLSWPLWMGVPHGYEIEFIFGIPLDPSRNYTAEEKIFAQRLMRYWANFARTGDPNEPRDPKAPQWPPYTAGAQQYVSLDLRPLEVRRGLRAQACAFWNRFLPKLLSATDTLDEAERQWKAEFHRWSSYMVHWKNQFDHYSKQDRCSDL
row,SMILES,Ratio Ki
1,N[C@@H](Cc1c[nH]c2ccccc12)C(=O)NCCC(=O)Nc1c2c(nc3ccccc13)CCCC2,197
2,N[C@@H](Cc1c[nH]c2ccccc12)C(=O)NCCNc1c2c(nc3ccccc13)CCCC2,210

# Biological target: Cholinesterase (Homo sapiens, UniProt P06276)
# Sequence (P06276 whole entry): as the sequence (P06276 whole entry, looked up) above
# Description: Inhibition of human recombinant BChE
row,SMILES,Ki [nM]
1,N[C@@H](Cc1c[nH]c2ccccc12)C(=O)NCCC(=O)Nc1c2c(nc3ccccc13)CCCC2,173
2,CN[C@@H](Cc1ccccc1)C(=O)NCC(=O)Nc1c2c(nc3ccccc13)CCCC2,1200
3,CC(C)(C)OC(=O)N[C@@H](Cc1c[nH]c2ccccc12)C(=O)NCCNc1c2c(nc3ccccc13)CCCC2,1.87
4,N[C@@H](Cc1ccc2ccccc2c1)C(=O)NCC(=O)Nc1c2c(nc3ccccc13)CCCC2,252
5,CC(C)(C)OC(=O)N[C@@H](Cc1c[nH]c2ccccc12)C(=O)NCCC(=O)Nc1c2c(nc3ccccc13)CCCC2,443
6,N[C@@H](Cc1ccccc1)C(=O)NCC(=O)Nc1c2c(nc3ccccc13)CCCC2,708
7,CN[C@@H](Cc1c[nH]c2ccccc12)C(=O)NCC(=O)Nc1c2c(nc3ccccc13)CCCC2,1760
8,O=C(CNC(=O)[C@@H]1Cc2ccccc2CN1)Nc1c2c(nc3ccccc13)CCCC2,580
9,N[C@@H](Cc1c[nH]c2ccccc12)C(=O)NCCNc1c2c(nc3ccccc13)CCCC2,1.33
10,N[C@@H](Cc1c[nH]c2ccccc12)C(=O)NCC(=O)Nc1c2c(nc3ccccc13)CCCC2,251
11,CC(C)(C)OC(=O)N[C@@H](CCC(=O)NCCNc1c2c(nc3ccccc13)CCCC2)C(=O)NCCNc1c2c(nc3ccccc13)CCCC2,12.6
12,O=C(NCCCCCNc1c2c(nc3ccccc13)CCCC2)[C@@H]1CCCN1CCNc1c2c(nc3ccccc13)CCCC2,1.77
13,N[C@@H](CCC(=O)NCCNc1c2c(nc3ccccc13)CCCC2)C(=O)NCCNc1c2c(nc3ccccc13)CCCC2,25.1

# Biological target: Acetylcholinesterase (Homo sapiens, UniProt P22303)
# Sequence (P22303 whole entry): as the sequence (P22303 whole entry, looked up) above
# Description: Inhibition of human recombinant AChE
row,SMILES,Ki [nM]
1,N[C@@H](Cc1c[nH]c2ccccc12)C(=O)NCCC(=O)Nc1c2c(nc3ccccc13)CCCC2,34000
2,CN[C@@H](Cc1ccccc1)C(=O)NCC(=O)Nc1c2c(nc3ccccc13)CCCC2,6320
3,CC(C)(C)OC(=O)N[C@@H](Cc1c[nH]c2ccccc12)C(=O)NCCNc1c2c(nc3ccccc13)CCCC2,130
4,N[C@@H](Cc1ccc2ccccc2c1)C(=O)NCC(=O)Nc1c2c(nc3ccccc13)CCCC2,11200
5,CC(C)(C)OC(=O)N[C@@H](Cc1c[nH]c2ccccc12)C(=O)NCCC(=O)Nc1c2c(nc3ccccc13)CCCC2,7970
6,N[C@@H](Cc1ccccc1)C(=O)NCC(=O)Nc1c2c(nc3ccccc13)CCCC2,1910
7,CN[C@@H](Cc1c[nH]c2ccccc12)C(=O)NCC(=O)Nc1c2c(nc3ccccc13)CCCC2,3330
8,O=C(CNC(=O)[C@@H]1Cc2ccccc2CN1)Nc1c2c(nc3ccccc13)CCCC2,4130
9,N[C@@H](Cc1c[nH]c2ccccc12)C(=O)NCCNc1c2c(nc3ccccc13)CCCC2,280
10,N[C@@H](Cc1c[nH]c2ccccc12)C(=O)NCC(=O)Nc1c2c(nc3ccccc13)CCCC2,2210
11,CC(C)(C)OC(=O)N[C@@H](CCC(=O)NCCNc1c2c(nc3ccccc13)CCCC2)C(=O)NCCNc1c2c(nc3ccccc13)CCCC2,15.4
12,O=C(NCCCCCNc1c2c(nc3ccccc13)CCCC2)[C@@H]1CCCN1CCNc1c2c(nc3ccccc13)CCCC2,6.75
13,N[C@@H](CCC(=O)NCCNc1c2c(nc3ccccc13)CCCC2)C(=O)NCCNc1c2c(nc3ccccc13)CCCC2,6.21
